Test results: patent publication US12662475B2, “Difluorocyclohexyl derivatives as IL-17 modulators” (UCB BIOPHARMA SRL, priority 2020, dated 2026)

System: IL-17 induced IL-6 release from human dermal fibroblasts
Assay: Inhibition of IL-17A induced IL-6 release from dermal fibroblast cell line (HDF cell line assay)
Assay type: cell-based
Settings: Incubation Time 5 h
Protocol: Inhibition of IL-17A Induced IL-6 Release from Dermal Fibroblast Cell Line
The purpose of this assay is to test the neutralising ability to IL-17 proteins, in a human primary cell system.
The resultant IL-6 response was then measured using a homogenous time-resolved FRET kit from Cisbio. The kit utilises two monoclonal antibodies, one labelled with Eu-Cryptate (Donor) and the second with d2 or XL665 (Acceptor).
The ability of a compound to inhibit IL-17 induced IL-6 release from human dermal fibroblasts is measured in this assay.
The TrypLE was neutralised using complete medium (45 mL) and the cells were centrifuged at 300×g for 3 minutes. […] The cells were left for a minimum of three hours, at 37° C./5% CO2, to adhere to the plate.
10 μL from the aqueous dilution plate was transferred to the reagent plate containing 30 μL of the diluted cytokines, to give a 2.5% DMSO solution. The compounds were incubated with the cytokine mixtures for 1 h or 5 h at 37° C. After the incubation, 10 μL was transferred to the assay plate, to give a […] solution, then incubated for 18-20 h at 37° C./5% CO2.

**Q.** For CC(C)n1ncnc1C(=O)N[C@H](c1nc2c(F)c([C@@H](CC(F)F)C(=O)NCC(C)(F)F)ccc2[nH]1)C1CCC(F)(F)CC1 (single isomer, unassigned) [Example 54], which IC50 is on record?
**A.** 79.4 nM

**Q.** For CC(C)(F)CNC(=O)C(CC(F)(F)F)c1ccc2[nH]c([C@@H](NC(=O)c3nonc3C3CC3)C3CCC(F)(F)CC3)nc2c1F (mixture of isomers) [Example 62, 4-Cyclopropyl-N—[(S)-(4,4-difluorocyclohexyl)(4-fluoro-5-{3,3,3-trifluoro-1-[(2-fluoro-2-methylpropyl)carbamoyl]propyl}-1H-benzimidazol-2-yl)methyl]-1,2,5-oxadiazole-3-carboxamide], which IC50 is on record?
**A.** 5.01 nM

**Q.** Which IC50 does the source give for CC(C)n1ncnc1C(=O)N[C@H](c1nc2c(F)c([C@H](CC(C)(F)F)C(=O)NCC(C)(C)F)ccc2[nH]1)C1CCC(F)(F)CC1 [Example 79, N—[(S)-(4,4-Difluorocyclohexyl)(5-{(1S)-3,3-difluoro-1-[(2-fluoro-2-methylpropyl)-carbamoyl]butyl}-4-fluoro-1H-benzimidazol-2-yl)methyl]-2-isopropyl-1,2,4-triazole-3-carboxamide] here?
**A.** 7.94 nM

**Q.** How did the IC50 turn out when O=C(N[C@H](c1nc2c(F)c([C@H](CC(F)F)C(=O)NCC(F)(F)F)ccc2[nH]1)C1CCC(F)(F)CC1)c1ccccc1F (single isomer, unassigned) [Example 50] was run?
**A.** 10 nM

**Q.** For O=C(N[C@H](c1nc2nc(C3(C(=O)NCC(F)(F)F)CCC(F)(F)CC3)ccc2[nH]1)C1CCC(F)(F)CC1)C1(F)CC1 [Example 78, 1-(2-{(S)-(4,4-Difluorocyclohexyl)[(1-fluorocyclopropanecarbonyl)amino]methyl}-1H-imidazo[4,5-b]pyridin-5-yl)-4,4-difluoro-N-(2,2,2-trifluoroethyl)cyclohexanecarboxamide], which IC50 is on record?
**A.** 15.8 nM

**Q.** With Cc1nonc1C(=O)N[C@H](c1nc2c(F)c(C(CC(F)(F)F)C(=O)NCCC(F)(F)F)ccc2[nH]1)C1CCC(F)(F)CC1 (stereo partly drawn) [Example 13, N—[(S)-(4,4-Difluorocyclohexyl){4-fluoro-5-[3,3,3-trifluoro-1-(3,3,3-trifluoropropyl-carbamoyl)propyl]-1H-benzimidazol-2-yl}methyl]-4-methyl-1,2,5-oxadiazole-3-carboxamide] as the molecule, how does the IC50 read?
**A.** 5.01 nM

**Q.** For Cc1nonc1C(=O)N[C@H](c1nc2c(F)c([C@H](CC(F)(F)F)C(=O)N[C@@H](C)C(F)(F)F)ccc2[nH]1)C1CCC(F)(F)CC1 (single isomer, unassigned) [Example 25], which IC50 is on record?
**A.** 7.94 nM

**Q.** How did the IC50 turn out when CC(C)n1ncnc1C(=O)N[C@H](c1nc2c(F)c([C@@H](CC(C)(F)F)C(=O)NCC(C)(F)F)ccc2[nH]1)C1CCC(F)(F)CC1 (single isomer, unassigned) [Example 86] was run?
**A.** 6310 nM

**Q.** Cc1nonc1C(=O)N[C@H](c1nc2c(F)c(C(CC(F)(F)F)C(=O)NCC3CC3(F)F)ccc2[nH]1)C1CCC(F)(F)CC1 (stereo partly drawn) [Example 14, N—[(S)-(4,4-Difluorocyclohexyl)(5-{1-[(2,2-difluorocyclopropyl)methylcarbamoyl]-3,3,3-trifluoropropyl}-4-fluoro-1H-benzimidazol-2-yl)methyl]-4-methyl-1,2,5-oxadiazole-3-carboxamide] was tested. Which IC50 did it give?
**A.** 7.94 nM

**Q.** For CC(C)n1ncnc1C(=O)N[C@H](c1nc2c(F)c([C@H](CC(F)F)C(=O)NCC(F)(F)F)ccc2[nH]1)C1CCC(F)(F)CC1 [Example 80, N—[(S)-(4,4-Difluorocyclohexyl){5-[(1S)-3,3-difluoro-1-(2,2,2-trifluoroethylcarbamoyl)-propyl]-4-fluoro-1H-benzimidazol-2-yl}methyl]-2-isopropyl-1,2,4-triazole-3-carboxamide], which IC50 is on record?
**A.** 6.31 nM

**Q.** Which IC50 does the source give for O=C(NCC(F)(F)F)[C@@H](CC(F)F)c1ccc2[nH]c([C@@H](NC(=O)C3(F)CC3)C3CCC(F)(F)CC3)nc2c1F [Example 81, N—[(S)-(4,4-Difluorocyclohexyl){5-[(1S)-3,3-difluoro-1-(2,2,2-trifluoroethylcarbamoyl)-propyl]-4-fluoro-1H-benzimidazol-2-yl}methyl]-1-fluorocyclopropanecarboxamide] here?
**A.** 31.6 nM

**Q.** With Cc1nonc1C(=O)N[C@H](c1nc2c(F)c([C@H](CC(F)F)C(=O)NCC(F)(F)F)ccc2[nH]1)C1CCC(F)(F)CC1 (single isomer, unassigned) [Example 41] as the molecule, how does the IC50 read?
**A.** 5.01 nM

**Q.** Which IC50 does the source give for Cc1nonc1C(=O)N[C@H](c1nc2c(F)c([C@H](CC(F)(F)F)C(=O)NCC(F)(F)F)ccc2[nH]1)C1CCC(F)(F)CC1 (single isomer, unassigned) [Example 34] here?
**A.** 2.51 nM

**Q.** How did the IC50 turn out when CC(C)n1ncnc1C(=O)N[C@H](c1nc2c(F)c([C@H](CC(F)(F)F)C(=O)NCC(C)(C)F)ccc2[nH]1)C1CCC(F)(F)CC1 (single isomer, unassigned) [Example 73] was run?
**A.** 6.31 nM

**Q.** Which IC50 does the source give for Cc1nonc1C(=O)N[C@H](c1nc2c(F)c([C@H](CC(F)(F)F)C(=O)N[C@@H](C(=O)N(C)C)C(C)C)ccc2[nH]1)C1CCC(F)(F)CC1 (single isomer, unassigned) [Example 11] here?
**A.** 3.98 nM

**Q.** With CC(C)n1ncnc1C(=O)N[C@H](c1nc2c(F)c([C@H](CC(F)(F)F)C(=O)NCC(C)(F)F)ccc2[nH]1)C1CCC(F)(F)CC1 (single isomer, unassigned) [Example 70] as the molecule, how does the IC50 read?
**A.** 6.31 nM

**Q.** For Cc1nonc1C(=O)N[C@H](c1nc2c(F)c(C(CC(F)F)C(=O)NC(C3CC3)C(F)(F)F)ccc2[nH]1)C1CCC(F)(F)CC1 (stereo partly drawn) [Example 52, N—[(S)-(5-{1-[(1-Cyclopropyl-2,2,2-trifluoroethyl)carbamoyl]-3,3-difluoropropyl}-4-fluoro-1H-benzimidazol-2-yl)(4,4-difluorocyclohexyl)methyl]-4-methyl-1,2,5-oxadiazole-3-carboxamide], which IC50 is on record?
**A.** 5.01 nM

**Q.** CC(F)(F)CNC(=O)C(CC(F)(F)F)c1ccc2[nH]c([C@@H](NC(=O)C3(F)CC3)C3CCC(F)(F)CC3)nc2c1F (mixture of isomers) [Example 82, N—[(S)-(4,4-Difluorocyclohexyl){5-[1-(2,2-difluoropropylcarbamoyl)-3,3,3-trifluoro-propyl]-4-fluoro-1H-benzimidazol-2-yl}methyl]-1-fluorocyclopropanecarboxamide] was tested. Which IC50 did it give?
**A.** 25.1 nM

**Q.** With CCS(=O)(=O)CCC(C(=O)N1CC(F)(F)C(F)(F)C1)c1ccc2[nH]c([C@@H](NC(=O)c3nonc3C)C3CCC(F)(F)CC3)nc2c1F (mixture of isomers) [Example 27, N—[(S)-(4,4-Difluorocyclohexyl){5-[3-(ethylsulfonyl)-1-(3,3,4,4-tetrafluoropyrrolidine-1-carbonyl)propyl]-4-fluoro-1H-benzimidazol-2-yl}methyl]-4-methyl-1,2,5-oxadiazole-3-carboxamide] as the molecule, how does the IC50 read?
**A.** 6.31 nM

**Q.** How did the IC50 turn out when Cc1nonc1C(=O)N[C@H](c1nc2c(F)c(C(CC(F)(F)F)C(=O)N[C@@H](C)C(F)(F)F)ccc2[nH]1)C1CCC(F)(F)CC1 (mixture of isomers) [Example 15, N—{(S)-(4,4-Difluorocyclohexyl)[4-fluoro-5-(3,3,3-trifluoro-1-{[(1S)-2,2,2-trifluoro-1-methylethyl]carbamoyl}propyl)-1H-benzimidazol-2-yl]methyl}-4-methyl-1,2,5-oxadiazole-3-carboxamide] was run?
**A.** 20 nM

**Q.** Which IC50 does the source give for CC(C)n1ncnc1C(=O)N[C@H](c1nc2c(F)c([C@H](CC(F)F)C(=O)NCC(C)(C)F)ccc2[nH]1)C1CCC(F)(F)CC1 (single isomer, unassigned) [Example 58] here?
**A.** 7.94 nM

**Q.** With Cc1nonc1C(=O)N[C@H](c1nc2c(F)c([C@@H](CC(F)(F)F)C(=O)NCC(F)(F)F)ccc2[nH]1)C1CCC(F)(F)CC1 (single isomer, unassigned) [Example 35] as the molecule, how does the IC50 read?
**A.** 631 nM

**Q.** For CC(C)n1ncnc1C(=O)N[C@H](c1nc2c(F)c(C(CC(F)F)C(=O)NCC(C)(F)F)ccc2[nH]1)C1CCC(F)(F)CC1 (mixture of isomers) [Example 53, N—[(S)-(4,4-Difluorocyclohexyl){5-[1-(2,2-difluoropropylcarbamoyl)-3,3-difluoropropyl]-4-fluoro-1H-benzimidazol-2-yl}methyl]-2-isopropyl-1,2,4-triazole-3-carboxamide], which IC50 is on record?
**A.** 63.1 nM

**Q.** Cc1nonc1C(=O)N[C@H](c1nc2c(F)c([C@H](CC(F)F)C(=O)N[C@H](C)C(F)(F)F)ccc2[nH]1)C1CCC(F)(F)CC1 (single isomer, unassigned) [Example 47] was tested. Which IC50 did it give?
**A.** 158 nM

**Q.** With Cc1nonc1C(=O)N[C@H](c1nc2c(F)c([C@@H](CC(F)(F)F)C(=O)N[C@@H](C(=O)N(C)C)C(C)C)ccc2[nH]1)C1CCC(F)(F)CC1 (single isomer, unassigned) [Example 12] as the molecule, how does the IC50 read?
**A.** 126 nM

**Q.** With CC(C)n1ncnc1C(=O)N[C@H](c1nc2c(F)c([C@H](CC(C)(F)F)C(=O)NCC(C)(F)F)ccc2[nH]1)C1CCC(F)(F)CC1 (single isomer, unassigned) [Example 87] as the molecule, how does the IC50 read?
**A.** 7.94 nM

**Q.** Which IC50 does the source give for CC(C)n1ncnc1C(=O)N[C@H](c1nc2c(F)c([C@@H](CC(F)(F)F)C(=O)NCC(C)(C)F)ccc2[nH]1)C1CCC(F)(F)CC1 (single isomer, unassigned) [Example 72] here?
**A.** 1580 nM

**Q.** For CC(C)n1ncnc1C(=O)N[C@H](c1nc2c(F)c([C@H](CC(C)(F)F)C(=O)NCC(C)(F)F)ccc2[nH]1)C1CCC(F)(F)CC1 (mixture of isomers) [Example 85, N—[(S)-(4,4-Difluorocyclohexyl){5-[1-(2,2-difluoropropylcarbamoyl)-3,3-difluorobutyl]-4-fluoro-1H-benzimidazol-2-yl}methyl]-2-isopropyl-1,2,4-triazole-3-carboxamide], which IC50 is on record?
**A.** 12.6 nM
